Assays:
[1] = target: T1, Casein kinase I isoform alpha (Homo sapiens, UniProt P48729); experiment: CSNK1A1 Assay 1
Method: Inhibitory activity of compounds of the present invention in presence of 1 μM adenosine-tri-phosphate (ATP) was quantified employing the CSNK1A1 assay as described in the following paragraphs. In essence, the enzyme activity is measured by quantification of the adenosine-di-phosphate (ADP), which is generated as a co-product of the enzyme reaction, via the “ADP-Glo™ Kinase Assay” kit from the company Promega. This detection system works as follows: In a first step the ATP not consumed in the kinase reaction is quantitatively converted to cAMP employing an adenylate cyclase (“ADP-Glo-reagent”), then the adenylate cyclase is stopped and the ADP generated in the kinase reaction converted to ATP which generates in a luciferase-based reaction a glow-luminescence signal (“Kinase Detection Reagent”). Recombinant fusion protein of N-terminal Glutathion-S-Transferase (GST) and full-length human CSNK1A1, expressed by baculovirus infected insect cells and purified via Glutathion affinity chromatography, was purchased from Life Technologies (product no. PV4174) and used as enzyme. As substrate for the kinase reaction the biotinylated peptide Btn-Ahx-[…] (C-terminus in amide form) was used which can be purchased e.g. from the company Biosyntan (Berlin-Buch, Germany).

[2] = target: T2, Epidermal growth factor receptor [669-1210] (UniProt P00533); experiment: WT-EGFR Kinase Assay
T2 construct: 669-1210
T2 sequence (P00533 669-1210): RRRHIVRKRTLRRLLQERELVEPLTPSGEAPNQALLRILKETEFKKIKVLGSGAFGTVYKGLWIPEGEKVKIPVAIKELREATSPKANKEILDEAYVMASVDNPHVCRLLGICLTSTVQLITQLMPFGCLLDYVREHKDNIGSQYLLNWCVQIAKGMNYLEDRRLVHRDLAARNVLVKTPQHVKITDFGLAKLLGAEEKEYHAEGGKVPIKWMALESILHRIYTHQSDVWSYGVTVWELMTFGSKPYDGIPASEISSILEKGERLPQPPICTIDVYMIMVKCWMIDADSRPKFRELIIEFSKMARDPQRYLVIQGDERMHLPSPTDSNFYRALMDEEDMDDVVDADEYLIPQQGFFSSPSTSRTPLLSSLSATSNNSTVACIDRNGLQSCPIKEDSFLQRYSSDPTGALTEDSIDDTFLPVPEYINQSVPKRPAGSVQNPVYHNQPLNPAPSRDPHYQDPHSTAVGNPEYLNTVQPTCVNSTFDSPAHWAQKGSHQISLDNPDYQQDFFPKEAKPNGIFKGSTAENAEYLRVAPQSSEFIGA
Method: For the assay 50 nl of a 100 fold concentrated solution of the test compound in DMSO was pipetted into either a black low volume 384 well microtiter plate or a black 1536 well microtiter plate (both Greiner Bio-One, Frickenhausen, Germany), 2 μL of a solution of EGFR in aqueous assay buffer [50 mM Hepes pH 7.0, 10 mM MgCl2, 1 mM dithiothreitol, 0.5 mM EGTA, 0.3 mM activated sodium ortho-vanadate, 0.005% (w/v) bovine serum albumin, 0.005% (v/v) Tween-20] were added and the mixture was incubated for 15 min at 22° C. to allow pre-binding of the test compounds to the enzyme before the start of the kinase reaction. […] The concentration of EGFR was adjusted depending of the activity of the enzyme lot and was chosen appropriate to have the assay in the linear range, typical concentration was 7.6 pg/μL. […] Subsequently the amount of phosphorylated substrate was evaluated by measurement of the resonance energy transfer from the PT66-Tb-Cryptate to the streptavidine-XL665.

[3] = target: T1, Casein kinase I isoform alpha; experiment: CSNK1A1 Assay 2
Method: For the assay 50 nl of a 100 fold concentrated solution of the test compound in DMSO was pipetted into a white 1536-well microtiter plate (Greiner Bio-One, Frickenhausen, Germany), 2 μL of a solution of CSNK1A1 in aqueous assay buffer [50 mM HEPES pH 7.5, 10% (v/v) glycerol, 10 mM MgCl2, 50 mM NaCl, 1 mM dithiothreitol, 0.01% (w/v) bovine serum albumin, 0.01% (v/v) Triton X-100] were added and the mixture was incubated for 15 min at 22° C. to allow pre-binding of the test compounds to the enzyme before the start of the kinase reaction. […] The concentration of CSNK1A1 was adjusted depending of the activity of the enzyme lot and was chosen appropriate to have the assay in the linear range, a typical concentrations are about 0.0375 ng/μL. The reaction was stopped by the addition of 2.5 μL of “ADP-Glo-reagent” (1:1.5 fold diluted with water) and the resulting mixture was incubated at 22° C. for 1 h to convert the ATP not consumed in the kinase reaction completely […]. Subsequently 2.5 μL of the “kinase detection reagent” (1.2 fold more concentrated than recommended by the producer) were added, the resulting mixture was incubated at 22° C. for 1 h and then the luminescence measured with a suitable measurement instrument (e.g. Viewlux™ from Perkin-Elmer).

[4] = target: T1, Casein kinase I isoform alpha; experiment: CSNK1A1 High ATP Assay
Method: For the assay 50 nl of a 100 fold concentrated solution of the test compound in DMSO was pipetted into a white low volume 384-well microtiter plate (Greiner Bio-One, Frickenhausen, Germany), 2 μL of a solution of CSNK1A1 in aqueous assay buffer [50 mM HEPES pH 7.5, 10% (v/v) glycerol, 10 mM MgCl2, 50 mM NaCl, 1 mM dithiothreitol, 0.01% (w/v) bovine serum albumin, 0.01% (v/v) Triton X-100] were added and the mixture was incubated for 15 min at 22° C. to allow pre-binding of the test compounds to the enzyme before the start of the kinase reaction. […] The concentration of CSNK1A1 was adjusted depending of the activity of the enzyme lot and was chosen appropriate to have the assay in the linear range, a typical concentration is about 0.4 ng/μL. The reaction was stopped by the addition of 2.5 μL of “ADP-Glo-reagent” (1:1.5 fold diluted with water) and the resulting mixture was incubated at 22° C. for 1 h to convert the ATP not consumed in the kinase reaction completely […]. Subsequently 2.5 μL of the “kinase detection reagent” (1.2 fold more concentrated than recommended by the producer) were added, the resulting mixture was incubated at 22° C. for 1 h and then the luminescence measured with a suitable measurement instrument (e.g. Viewlux™ from Perkin-Elmer). The amount of emitted light was taken as a measure for the amount of ADP generated and thereby for the activity of the CSNK1A1.

[5] = target: Casein kinase I isoform delta (Homo sapiens, UniProt P48730); experiment: CSNK1D Assay
Casein kinase I isoform delta, sequence (P48730 whole entry, canonical isoform): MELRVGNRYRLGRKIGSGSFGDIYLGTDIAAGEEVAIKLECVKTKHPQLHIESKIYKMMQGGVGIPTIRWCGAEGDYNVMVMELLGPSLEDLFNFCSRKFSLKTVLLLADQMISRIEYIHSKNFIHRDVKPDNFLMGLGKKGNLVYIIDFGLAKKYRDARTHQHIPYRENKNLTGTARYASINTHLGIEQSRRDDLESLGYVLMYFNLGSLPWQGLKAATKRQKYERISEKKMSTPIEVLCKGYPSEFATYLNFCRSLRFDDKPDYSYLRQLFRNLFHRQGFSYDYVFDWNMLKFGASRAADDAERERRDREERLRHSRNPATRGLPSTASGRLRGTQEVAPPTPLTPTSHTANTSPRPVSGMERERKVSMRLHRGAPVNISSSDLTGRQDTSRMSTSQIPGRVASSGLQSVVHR
Method: For the assay 50 nl of a 100 fold concentrated solution of the test compound in DMSO was pipetted into a white 1536-well microtiter plate (Greiner Bio-One, Frickenhausen, Germany), 2 μL of a solution of CSNK1D in aqueous assay buffer [50 mM HEPES pH 7.5, 10% (v/v) glycerol, 10 mM MgCl2, 50 mM NaCl, 1 mM dithiothreitol, 0.01% (w/v) bovine serum albumin, 0.01% (v/v) Triton X-100] were added and the mixture was incubated for 15 min at 22° C. to allow pre-binding of the test compounds to the enzyme before the start of the kinase reaction. […] The concentration of CSNK1 D was adjusted depending of the activity of the enzyme lot and was chosen appropriate to have the assay in the linear range, a typical concentration is about 0.5 ng/μL. The reaction was stopped by the addition of 2.5 μL of “ADP-Glo-reagent” (1:1.5 fold diluted with water) and the resulting mixture was incubated at 22° C. for 1 h to convert the ATP not consumed in the kinase reaction completely […]. Subsequently 2.5 μL of the “kinase detection reagent” (1.2 fold more concentrated than recommended by the producer) were added, the resulting mixture was incubated at 22° C. for 1 h and then the luminescence measured with a suitable measurement instrument (e.g. Viewlux™ from Perkin-Elmer). The amount of emitted light was taken as a measure for the amount of ADP generated and thereby for the activity of the CSNK1D.

T1 sequence (P48729 whole entry, canonical isoform): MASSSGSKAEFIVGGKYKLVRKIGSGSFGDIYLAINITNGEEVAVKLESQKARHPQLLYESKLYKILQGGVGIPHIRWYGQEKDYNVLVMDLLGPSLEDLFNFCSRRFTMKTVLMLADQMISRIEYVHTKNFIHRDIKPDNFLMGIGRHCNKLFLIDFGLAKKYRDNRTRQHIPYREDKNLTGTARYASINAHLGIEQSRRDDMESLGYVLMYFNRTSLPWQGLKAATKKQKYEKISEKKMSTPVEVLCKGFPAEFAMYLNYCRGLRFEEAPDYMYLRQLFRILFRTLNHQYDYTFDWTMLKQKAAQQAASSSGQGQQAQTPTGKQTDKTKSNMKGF

SMILES	IC50 [1] [µM]	IC50 [2] [µM]	IC50 [3] [µM]	IC50 [4] [µM]	IC50 [5] [µM]
CN1CCc2[nH]c(-c3ccnc(NC(=O)[C@@H]4C[C@@H]4F)c3)c(Nc3ccccc3)c2C1=O [US10428063, Example 40]	0.0241	0.0855			
CC1(C)Cc2[nH]c(-c3ccnc(NC(=O)Cc4ccc(F)cc4)c3)c(Nc3ccccc3)c2C(=O)N1 [US12227501, Example 22]		0.815	0.00423	0.0547	0.0119
CC(C(=O)Nc1cc(-c2[nH]c3c(c2Nc2ccccc2F)C(=O)N(C)CC3)ccn1)c1ccc(F)cc1 (stereo not drawn) [US12227501, Example 29]			0.00319	0.138	
O=C(Cc1ccc(F)cc1)Nc1cc(-c2[nH]c3c(c2Nc2ccccc2)C(=O)N(CC(F)(F)F)CC3)ccn1 [US12227501, Example 36]		> 20	0.0113	1.08	
CC(C(=O)Nc1cc(-c2[nH]c3c(c2Nc2ccccc2)C(=O)N(CC(F)(F)F)CC3)ccn1)c1ccc(F)cc1 (stereo not drawn) [US12227501, Example 37]		> 20	0.0226	> 1.63	
Cc1cccc(CC(=O)Nc2cc(-c3[nH]c4c(c3Nc3ccccc3)C(=O)N(C)CC4)ccn2)c1 [US12227501, Example 70]		2.04	0.0032	0.14	0.00366
Cc1ccccc1CC(=O)Nc1cc(-c2[nH]c3c(c2Nc2ccccc2)C(=O)N(C)CC3)ccn1 [US12227501, Example 71]		7.43	0.00479	0.241	0.00647
Cc1ccccc1Nc1c(-c2ccnc(NC(=O)Cc3ccc(F)cc3)c2)[nH]c2c1C(=O)NC(C)(C)C2 [US12227501, Example 113]			0.0137	0.166	0.0161
CC1(C)Cc2[nH]c(-c3ccnc(NC(=O)Cc4ccc(F)cc4)c3)c(Nc3cccc(F)n3)c2C(=O)N1 [US12227501, Example 126]			0.00444	0.0478	0.0144
CC1(C)Cc2[nH]c(-c3ccnc(NC(=O)Cc4ccc(F)cc4)c3)c(Nc3cccc(F)n3)c2C(=O)N1 [US12227501, Example 127]		> 20	0.00474	0.0231	
Cc1c(F)cccc1Nc1c(-c2ccnc(NC(=O)Cc3ccc(F)cc3)c2)[nH]c2c1C(=O)NC(C)(C)C2 [US12227501, Example 131]		1.09	0.00938	0.464	0.0116
Cc1ccccc1Nc1c(-c2ccnc(NC(=O)Cc3ccc(F)cc3)c2)[nH]c2c1C(=O)NC1(CCC1)C2 [US12227501, Example 142]		> 20	0.0051	0.0123	0.00935
CN1C(=O)c2c([nH]c(-c3ccnc(NC(=O)Cc4ccc(F)cc4)c3)c2Nc2ccccc2)CC12CCC2 [US12227501, Example 156]		6.66	0.00609	0.0297	0.00938
